US11624095B2, “Method of quantifying HIV reservoirs by induced transcription based sequencing” (priority 2017, dated 2023)

Experiments:
[1] = tested on: latent HIV proviruses in memory CD4+ T-cells of HIV-1-infected subjects; assay: EDITS assay, inducible HIV env RNA in resting memory cells after ex vivo activation; format: cell-based
Description: We developed a novel deep sequencing-based protocol (EDITS, Envelope Detection by Induced Transcription-based Sequencing) to measure RNA induction, capable of detecting inducible cell-associated HIV RNA. The EDITS Assay measures inducible HIV envelope RNA in infected cells, including patient-derived samples. The HIV envelope mRNA has been chosen because the splicing pattern covers a significant portion of the proviral genome, thus minimizing readouts from defective proviruses with large deletions (FIG. 1). Briefly, 1.25×10^6 resting memory cells from aviremic (<20 copies/ml) HIV-1-infected subjects are induced by one or more latency reversing agents (LRAs) and/or by engagement of the T-cell receptor (TCR).
FIG. 6 summarizes the protocol of the EDITS assay. Briefly, blood is collected from an HIV-infected individual and peripheral blood mononuclear cells (PBMCs) are purified. CD4^+ memory cells are negatively isolated using robotic magnetic bead isolation technology (Stemcell, 19157RF) and allowed to equilibrate in RPMI with 10% FBS, Primocin and 30 IU/ml of IL-2 overnight. 1.25 million cells are stimulated with one or more LRA (e.g., Concanavalin A) for 24 hours. […]
Fastq files are analyzed using a proprietary pipeline (bioinformatics tool) to not only quantify the amount of HIV-1 present in any given sample but also to determine viral diversity.

[2] = tested on: HIV in purified CD4+ T-cells from HIV-1-infected men and women; assay: modified EDITS assay quantifying spreading viral infection (HIV RNA+ cells after Con A stimulation); format: cell-based; settings: for spreading infection / HIV RNA induction: 300 pg/ml 17β-estradiol, 9 days; for spreading infection: absence of raltegravir, women compared to men (p=0.00052); for HIV RNA induction: women compared to men (p=0.00039); for number of HIV RNA positive cells per million: CD4+ memory cells stimulated 9 days with Con A in presence of 1 μM raltegravir
Description: It is contemplated that the quantification of the latent HIV-1 can occur before, during, and after the course of a therapeutic regimen in order to determine the efficacy of a chosen therapeutic regimen. One way to assess the efficacy of the HIV-1 therapeutic is to compare the latent HIV-1 reactivation pre and post therapeutic administration. The amount of cell associated inducible HIV env RNA measured in the sample can then be compared to a control to determine the efficacy of the antiviral and/or LRAs. The control can be the amount of cell associated inducible HIV env RNA measured in infected cells prior to the administration of the one or more antiviral and/or latency reversing agents. In order to evaluate sex differences in CD4+ T-cells from male and female subjects, methods described herein can be modified to include an additional in vitro step allowing for the quantification of spreading viral infections in the presence of candidate agents. Therefore, in optional embodiments, purified CD4+ T-cells are stimulated with an HIV transcription inducing agent in the absence or presence of an antiretroviral agent to block spreading of HIV infection and a candidate agent. The amount of newly infected cells can be determined by measuring the increase in HIV RNA+ cells in the absence of the infection blocking agent compared to cells stimulated in the presence of the infection blocking agent.
The number of newly infected cells was determined, in accordance with the methods described herein, by measuring the HIV RNA+ cells in the absence of raltegravir after nine days. It was shown that the addition of 17β-estradiol blocked both HIV RNA induction and spreading infection in women compared to men, consistent with previous observations that the estrogen receptor-1 (ESR-1) can act as a repressor of HIV transcription.
CD4^+ T-cells were isolated from cryopreserved PBMCs and the frequencies of cells harboring total and integrated HIV-1 DNA (tHIV and iHIV) were measured relative to CD3 copy number. Cell associated (CA) unspliced (usHIV) RNA was quantified and multiply-spliced (msRNA) was measured using the identical semi-nested PCR with different primers. Low level viremia was quantified from seven milliliters of plasma with PCR amplification targeting a conserved, untranslated HIV-1 gag RNA sequence (the HMMCgag assay). Inducible HIV-1 RNA was measured using the TILDA assay; briefly, purified CD4^+ T-cells are stimulated maximally with PMA/ionomycin, serially diluted, lysed and HIV-1 msRNA measured with a two-step RT-PCR. Maximum likelihood estimates based on the number of positive wells are used to determine the frequency of cells harboring inducible HIV-1. A modified version of the EDITS assay was used to quantify spreading viral infections. Purified CD4^+ T-cells were stimulated with the mitogen Concanavalin A (Con A) in the absence or presence of 1 μM Raltegravir (to block spreading infection) and absence or presence of 300 pg/ml 17β-estradiol. Newly infected cells were determined after nine days as the increase in HIV RNA+ cells in the absence of Raltegravir.
As a complementary method to evaluate sex differences CD4^+ T-cells from a subset of men (n=6) and women (n=6) who underwent leukapheresis were evaluated for the level of inducible replication competent virus using a modified EDITS assay (FIG. 10). Purified CD4^+ memory cells were stimulated for 9 days to induce HIV transcription in the presence or absence of raltegravir and number of HIV RNA^+ cells was quantified by EDITS. […] In the absence of raltegravir, there were 348 RNA positive cells per million for the women and 457 RNA positive cells per million for the men, indicating spreading infection.

[3] = Con A stimulation, listed as estrogen

Concanavalin A
efficiency of activation of RNA from proviruses ([1]; strong LRAs such as TCR activation or mitogen activation, applicant's estimate): greater than 75%

C[C@]12CC[C@@H]3c4ccc(O)cc4CC[C@H]3[C@@H]1CC[C@@H]2O [17β-estradiol]
proviral reactivation ([1]; samples activated ex vivo by TCR induction in presence and absence of Estradiol (FIG. 4)): potent inhibitor of proviral reactivation | spreading infection ([2]; Con A stimulation): potently blocked | spreading infection [2, 3]: potently blocked | HIV RNA induction ([2]; Con A stimulation): potently blocked | HIV RNA induction [2, 3]: potently blocked

Cc1nnc(C(=O)NC(C)(C)c2nc(C(=O)NCc3ccc(F)cc3)c(O)c(=O)n2C)o1 [raltegravir]
viral spread ([2]; 1 μM raltegravir, 9 days culture, Con A stimulation): blocked | number of HIV RNA positive cells per million ([2]; men (n=6)): 80 RNA positive cells per million | number of HIV RNA positive cells per million ([2]; women (n=6)): 74 RNA positive cells per million
